For assay [1], the system named is 5-HT1B 5-hydroxytryptamine (serotonin) receptor 1B. As to the kind of experiment: Receptor binding.
The subject of the next assay is RPMI-6666. As to the kind of experiment: Inhibition of cell proliferation (MTT). It is filed as cell-based. The note with it: Homo sapiens; RPMI-6666, Lymphoma; 48 hours. The protocol: (§1) Inhibition of cell proliferation is determined in human tumor cell lines. Innoculation density and doubling times for specific cell lines are listed at World Wide Web URL “dtp.nci.nih.gov/docs/misc/common_files/cell_list.html.”
(§2) • 1. Plate adherent cells the day before starting the experiment in 180 μl growth media (see list hereafter). • 2. Day of experiment, count and plate suspension cells in 180 μl growth media (see list on next page). • 3. Make 10× Compound, vehicle, and chemotherapeutic cocktail • a. Compound (1× to 10×) • i. 10 μM Compound to 100 μM • ii. 3 μM Compound to 30 μM • iii. 1 μM Compound to 10 μM • iv. 0.3 μM Compound to 3 μM • v. 0.1 μM Compound to 1 μM • b. Vehicle • i. PBS, equivalent to the volume used for 10 μM Compound (1× is ˜0.06% PBS) • c. Chemotherapeutic cocktail (1× to 10×): • i. 1 μM Velcade to 10 μM • ii. 100 μM Etoposide to 1 mM • iii. 20 μM Taxol to 200 μM • 4. Add 20 μl of the 10× compound/vehicle/chemotherapeutic cocktail to cells. • 5. Incubate at 37° C., 5% CO2 for 48 hours. • 6. Aspirate media. For suspension cells, spin plate at 1500 RPM for 10 minutes. Use a multichannel pipettor to slowly remove media. • 7. Add 200 μl of Thiazolyl Blue Tetrazolium Bromide (MTT) to each well: 0.863 mg/ml MTT in growth media.
(§3) Proliferation of several cancer cells was inhibited by compound TA1-1B (which is a particular mixture of the isomers represented by TA1-1A), as shown in the following table (Table 1). The value EC50 is the amount of Compound TA1-1B that results in 50% inhibition of proliferation of the indicated cell type.

The next assay concerns RS1184. As to the kind of experiment: Inhibition of cell proliferation (MTT). The note with it: Homo sapiens; RS1184, Lymphoma; 48 hours. It is filed as cell-based. The protocol: as §1, §2, §3
In another assay the test system is J45-01. As to the kind of experiment: Inhibition of cell proliferation (MTT). In kind it is cell-based. The note with it: Homo sapiens; J45-01, Leukemia; 48 hours. The protocol:
as §1, §2, §3

The test system of another assay is NCI/ADR-RES. In words: Inhibition of cell proliferation (MTT). In kind it is cell-based. The note with it: Homo sapiens, Breast, 48 hours. The protocol: as §1, §2, §3
The next assay deals with RPMI-8226. As to the kind of experiment: Inhibition of cell proliferation (MTT). In kind it is cell-based. As to conditions: Homo sapiens; RPMI-8226, Leukemia; 48 hours. The protocol: as §1, §2, §3
The test system of the next assay is KG-1. In words: Inhibition of cell proliferation (MTT). It is filed as cell-based. As to conditions: Homo sapiens; KG-1, Leukemia; 48 hours. The protocol: as §1, §2, §3
A further assay has as its system MOLT-3. As to the kind of experiment: Inhibition of cell proliferation (MTT). As to conditions: Homo sapiens; MOLT-3, Leukemia; 48 hours. It is filed as cell-based. The protocol: as §1, §2, §3
For a further assay, the system named is Karpas299. In words: Inhibition of cell proliferation (MTT). It is filed as cell-based. As to conditions: Homo sapiens, KARPAS-299; Karpas299, Lymphoma; 48 hours. The protocol: as §1, §2, §3
The subject of the next assay is PC-3. In words: Inhibition of cell proliferation (MTT). It is filed as cell-based. The note with it: Homo sapiens; PC-3, Prostate; 48 hours. The protocol:
as §1, §2, §3

The next assay deals with NCI-H522. In words: Inhibition of cell proliferation (MTT). It is filed as cell-based. As to conditions: Homo sapiens; NCI-H522, Non Small Cell Lung; 48 hours. The protocol:
as §1, §2, §3

A further assay concerns P116. As to the kind of experiment: Inhibition of cell proliferation (MTT). In kind it is cell-based. As to conditions: Homo sapiens; P116, Leukemia; 48 hours. The protocol: as §1, §2, §3
The next assay concerns MOLT-4. As to the kind of experiment: Inhibition of cell proliferation (MTT). In kind it is cell-based. The note with it: Homo sapiens; MOLT-4, Leukemia; 48 hours. The protocol: as §1, §2, §3
In another assay the test system is HT. In words: Inhibition of cell proliferation (MTT). The note with it: Homo sapiens, Lymphoma, 48 hours. It is filed as cell-based. The protocol: as §1, §2, §3
Another assay relates to MEG-01. As to the kind of experiment: Inhibition of cell proliferation (MTT). In kind it is cell-based. As to conditions: Homo sapiens; MEG-01, Leukemia; 48 hours. The protocol:
as §1, §2, §3

The subject of the next assay is Daudi. In words: Inhibition of cell proliferation (MTT). The note with it: Homo sapiens, Lymphoma, 48 hours. In kind it is cell-based. The protocol: as §1, §2, §3
The target of the next assay is Neurokinin NK2 receptor (Homo sapiens, UniProt P21452). As to the kind of experiment: Receptor binding.
A further assay deals with SST1 (Homo sapiens, UniProt P30872). In words: Receptor binding. The protocol:
(§4) The binding IC50, functional effect, and functional EC50 of TA1-1B on exemplary receptors was determined.

For a further assay, the target named is SST4 (Homo sapiens, UniProt P31391). As to the kind of experiment: Receptor binding. The protocol: as §4
The next assay has as its target SST5 (Homo sapiens, UniProt P35346). As to the kind of experiment: Receptor binding. The protocol: as §4
Assay [2] addresses CCKA/CCK1 Cholecystokinin receptor (Homo sapiens, UniProt P32238). As to the kind of experiment: Receptor binding. The protocol:
as §4

The subject of assay [3] is κ-opioid (KOP) opioid receptor. In words: Receptor binding.
In the next assay the target is M4 Muscarinic receptor (Homo sapiens, UniProt P08173). In words: Receptor binding.
Chain of M4 Muscarinic receptor (P08173 whole entry): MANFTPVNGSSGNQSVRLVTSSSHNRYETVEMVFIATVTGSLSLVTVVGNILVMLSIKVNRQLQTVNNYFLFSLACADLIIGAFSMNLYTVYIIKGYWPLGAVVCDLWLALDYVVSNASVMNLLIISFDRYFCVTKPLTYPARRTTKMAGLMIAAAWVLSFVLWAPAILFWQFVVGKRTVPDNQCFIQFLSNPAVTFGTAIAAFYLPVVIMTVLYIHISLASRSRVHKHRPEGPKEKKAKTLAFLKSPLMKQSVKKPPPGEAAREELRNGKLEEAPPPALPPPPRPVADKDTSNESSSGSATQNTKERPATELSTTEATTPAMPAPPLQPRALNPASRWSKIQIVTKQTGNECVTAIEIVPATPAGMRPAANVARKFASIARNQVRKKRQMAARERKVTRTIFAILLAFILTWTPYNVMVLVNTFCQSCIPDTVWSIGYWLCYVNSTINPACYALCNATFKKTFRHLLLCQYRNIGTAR

Chain of CCKA/CCK1 Cholecystokinin receptor (P32238 whole entry): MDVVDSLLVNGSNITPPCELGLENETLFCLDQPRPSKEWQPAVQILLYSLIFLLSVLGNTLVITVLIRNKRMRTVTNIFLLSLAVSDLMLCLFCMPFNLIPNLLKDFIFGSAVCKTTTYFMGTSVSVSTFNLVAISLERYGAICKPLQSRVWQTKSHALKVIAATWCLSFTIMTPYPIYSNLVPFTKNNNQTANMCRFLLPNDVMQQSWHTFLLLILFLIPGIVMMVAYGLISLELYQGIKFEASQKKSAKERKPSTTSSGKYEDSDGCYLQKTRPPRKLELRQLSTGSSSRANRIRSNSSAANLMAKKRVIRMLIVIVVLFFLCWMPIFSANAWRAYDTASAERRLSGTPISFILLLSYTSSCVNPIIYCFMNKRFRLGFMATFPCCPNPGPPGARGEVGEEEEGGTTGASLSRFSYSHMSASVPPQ
Chain of SST4 (P31391 whole entry, species assumed): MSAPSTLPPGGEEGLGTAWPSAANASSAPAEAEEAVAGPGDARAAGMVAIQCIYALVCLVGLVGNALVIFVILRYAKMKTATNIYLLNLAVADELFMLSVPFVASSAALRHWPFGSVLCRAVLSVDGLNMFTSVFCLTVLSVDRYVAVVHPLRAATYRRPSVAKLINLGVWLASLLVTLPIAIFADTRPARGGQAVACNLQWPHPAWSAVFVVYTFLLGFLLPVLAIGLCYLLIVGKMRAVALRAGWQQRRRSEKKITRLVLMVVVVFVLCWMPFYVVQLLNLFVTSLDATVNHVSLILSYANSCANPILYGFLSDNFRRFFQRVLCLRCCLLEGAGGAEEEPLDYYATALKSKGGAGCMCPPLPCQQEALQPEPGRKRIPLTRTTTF
Chain of SST5 (P35346 whole entry, species assumed): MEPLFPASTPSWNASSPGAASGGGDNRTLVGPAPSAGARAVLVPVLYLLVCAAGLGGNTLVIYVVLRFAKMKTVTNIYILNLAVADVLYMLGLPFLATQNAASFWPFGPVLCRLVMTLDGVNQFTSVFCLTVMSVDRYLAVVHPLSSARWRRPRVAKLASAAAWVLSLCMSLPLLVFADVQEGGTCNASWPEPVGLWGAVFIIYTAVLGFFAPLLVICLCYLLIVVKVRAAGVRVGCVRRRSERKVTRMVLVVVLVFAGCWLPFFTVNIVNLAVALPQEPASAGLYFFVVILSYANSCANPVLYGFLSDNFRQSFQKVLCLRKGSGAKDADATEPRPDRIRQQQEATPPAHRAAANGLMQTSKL
Chain of Neurokinin NK2 receptor (P21452 whole entry): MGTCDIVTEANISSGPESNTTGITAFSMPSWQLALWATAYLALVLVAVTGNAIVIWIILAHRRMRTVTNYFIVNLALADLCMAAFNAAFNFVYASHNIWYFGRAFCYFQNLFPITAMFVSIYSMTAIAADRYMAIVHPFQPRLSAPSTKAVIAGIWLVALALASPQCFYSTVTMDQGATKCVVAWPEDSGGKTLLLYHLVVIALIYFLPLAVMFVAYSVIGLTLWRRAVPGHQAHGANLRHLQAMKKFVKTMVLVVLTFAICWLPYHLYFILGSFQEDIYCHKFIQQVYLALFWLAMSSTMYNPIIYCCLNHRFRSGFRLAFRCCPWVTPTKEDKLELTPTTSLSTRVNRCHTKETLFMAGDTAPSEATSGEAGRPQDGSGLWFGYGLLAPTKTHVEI
Chain of SST1 (P30872 whole entry, species assumed): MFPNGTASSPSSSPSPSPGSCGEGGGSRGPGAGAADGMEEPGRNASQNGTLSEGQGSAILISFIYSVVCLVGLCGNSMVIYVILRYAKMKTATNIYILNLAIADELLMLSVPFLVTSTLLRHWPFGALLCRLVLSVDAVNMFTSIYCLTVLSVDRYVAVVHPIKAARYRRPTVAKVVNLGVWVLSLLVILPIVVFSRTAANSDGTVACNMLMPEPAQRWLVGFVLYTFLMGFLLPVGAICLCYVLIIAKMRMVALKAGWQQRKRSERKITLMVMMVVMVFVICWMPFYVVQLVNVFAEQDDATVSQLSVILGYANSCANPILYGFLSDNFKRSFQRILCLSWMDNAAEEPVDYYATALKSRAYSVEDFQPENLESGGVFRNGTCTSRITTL

As usually defined, the EC50 is the concentration at which the effect is half-maximal. Read a high EC50 as a less potent agent. In general, inhibition refers to the relative decrease from the control value, in per cent. One may read the IC50 as the concentration that inhibits the measured activity by half. Lower therefore signals greater potency. Regarding `CN1CCC[C@H]1CCNC(=O)c1cn2c3c(c(N4CCC(c5cnccn5)C4)c(F)cc3c1=O)Oc1cc3ccccc3cc1-2` (stereo partly drawn) [TA1-1B], the results for the “% inhibition @ 1 uM” value in assay [1] and in [3] were 49% and 52%, respectively. The EC50 was 1.59 µM in the assay with RPMI-6666; 3.25 µM in the assay with RS1184; 1.89 µM in the assay on J45-01; 1.62 µM with NCI/ADR-RES; 1.37 µM in the assay on RPMI-8226; 3.97 µM in the assay with KG-1. The concentration giving a half-maximal response (EC50) with MOLT-3 is 1.14 µM; with Karpas299, 3.92 µM; with PC-3, 4.96 µM; with NCI-H522, 1.5 µM; in the assay on P116 it was 1.23 µM; with MOLT-4 it was 1.21 µM. Also, the figures for the EC50 in the assay on HT, with MEG-01 and with Daudi were 2.44 µM, 6 µM and 1.29 µM, respectively. For the same molecule, the inhibition at 1 µM on Neurokinin NK2 receptor is 107%; in assay [2] (CCKA/CCK1, 1 uM), 64%; at M4 Muscarinic receptor it was 87%. For the same molecule, the IC50 at SST1 is 2.8 µM; at SST4 it was over 10 µM; on SST5 it was over 10 µM; in [2] (CCK1/CCKA), 0.64 µM.

These data come from US20080318938A1, “METHODS FOR TREATING ABERRANT CELL PROLIFERATION DISORDERS” (priority 2007, published 2008).
